Data: patent US11542259B2, “Compounds for the treatment of kinase-dependent disorders” (Exelixis, Inc., priority 2018, dated 2023)

What was measured:
Met = Met (Homo sapiens (Human), UniProt P08581); experiment: Met autophosphorylation ELISA in PC-3 cells; format: cell-based; details: cellular, HGF stimulated, read-out: c-Met IC50
In short: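 PC-3 cells serum-starved 3 h, treated 1 h with 8-point compound series (0.3% DMSO), then stimulated with 100 ng/mL human HGF for 10 min. Lysate phospho-Met (panTyr) measured by sandwich ELISA; IC50 from 4-parameter logistic fit against DMSO and reference-inhibitor controls.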

[1] = target: Human Met (residues R974-S1390 with A1209G and V1290L) (Homo sapiens, UniProt P08581); experiment: Human Met kinase assay (33P radiometric, KinaseProfiler); format: biochemical; details: 10 μM ATP, read-out: c-Met IC50
[2] = target: Human Mer (residues R557-E882 with H628Q and R794A) (Homo sapiens (Human), UniProt Q12866); experiment: Human Mer kinase assay (33P radiometric, KinaseProfiler); format: biochemical; details: 10 μM ATP
Human Mer (residues R557-E882 with H628Q and R794A), sequence (Q12866 557-882, stated change not applied): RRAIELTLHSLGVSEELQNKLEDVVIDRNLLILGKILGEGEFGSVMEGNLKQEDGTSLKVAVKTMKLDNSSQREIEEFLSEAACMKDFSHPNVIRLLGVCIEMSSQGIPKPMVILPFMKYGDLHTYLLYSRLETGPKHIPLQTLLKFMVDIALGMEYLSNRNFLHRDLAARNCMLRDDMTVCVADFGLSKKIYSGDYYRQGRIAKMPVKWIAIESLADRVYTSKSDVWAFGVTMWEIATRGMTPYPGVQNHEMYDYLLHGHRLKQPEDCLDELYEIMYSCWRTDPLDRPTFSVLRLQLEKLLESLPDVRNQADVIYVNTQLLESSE

[3] = target: Human Axl (residues H473-A894 with Q764R) (Homo sapiens (Human), UniProt P30530, Q764R); experiment: Human AXL kinase assay (33P radiometric, KinaseProfiler); format: biochemical; details: 10 μM ATP
Human Axl (residues H473-A894 with Q764R), sequence (P30530 473-894 Q764R): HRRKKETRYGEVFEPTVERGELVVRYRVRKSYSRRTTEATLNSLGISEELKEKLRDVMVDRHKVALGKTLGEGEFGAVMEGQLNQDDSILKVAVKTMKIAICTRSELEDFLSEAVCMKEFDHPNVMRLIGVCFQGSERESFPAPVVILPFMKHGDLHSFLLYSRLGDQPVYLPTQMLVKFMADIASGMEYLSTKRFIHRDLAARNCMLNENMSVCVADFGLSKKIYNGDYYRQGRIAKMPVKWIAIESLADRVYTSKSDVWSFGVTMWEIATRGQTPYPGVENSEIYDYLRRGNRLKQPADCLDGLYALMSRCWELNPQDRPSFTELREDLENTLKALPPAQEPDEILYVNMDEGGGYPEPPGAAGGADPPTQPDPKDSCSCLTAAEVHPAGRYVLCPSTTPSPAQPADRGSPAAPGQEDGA

Met, sequence (P08581 25-1390): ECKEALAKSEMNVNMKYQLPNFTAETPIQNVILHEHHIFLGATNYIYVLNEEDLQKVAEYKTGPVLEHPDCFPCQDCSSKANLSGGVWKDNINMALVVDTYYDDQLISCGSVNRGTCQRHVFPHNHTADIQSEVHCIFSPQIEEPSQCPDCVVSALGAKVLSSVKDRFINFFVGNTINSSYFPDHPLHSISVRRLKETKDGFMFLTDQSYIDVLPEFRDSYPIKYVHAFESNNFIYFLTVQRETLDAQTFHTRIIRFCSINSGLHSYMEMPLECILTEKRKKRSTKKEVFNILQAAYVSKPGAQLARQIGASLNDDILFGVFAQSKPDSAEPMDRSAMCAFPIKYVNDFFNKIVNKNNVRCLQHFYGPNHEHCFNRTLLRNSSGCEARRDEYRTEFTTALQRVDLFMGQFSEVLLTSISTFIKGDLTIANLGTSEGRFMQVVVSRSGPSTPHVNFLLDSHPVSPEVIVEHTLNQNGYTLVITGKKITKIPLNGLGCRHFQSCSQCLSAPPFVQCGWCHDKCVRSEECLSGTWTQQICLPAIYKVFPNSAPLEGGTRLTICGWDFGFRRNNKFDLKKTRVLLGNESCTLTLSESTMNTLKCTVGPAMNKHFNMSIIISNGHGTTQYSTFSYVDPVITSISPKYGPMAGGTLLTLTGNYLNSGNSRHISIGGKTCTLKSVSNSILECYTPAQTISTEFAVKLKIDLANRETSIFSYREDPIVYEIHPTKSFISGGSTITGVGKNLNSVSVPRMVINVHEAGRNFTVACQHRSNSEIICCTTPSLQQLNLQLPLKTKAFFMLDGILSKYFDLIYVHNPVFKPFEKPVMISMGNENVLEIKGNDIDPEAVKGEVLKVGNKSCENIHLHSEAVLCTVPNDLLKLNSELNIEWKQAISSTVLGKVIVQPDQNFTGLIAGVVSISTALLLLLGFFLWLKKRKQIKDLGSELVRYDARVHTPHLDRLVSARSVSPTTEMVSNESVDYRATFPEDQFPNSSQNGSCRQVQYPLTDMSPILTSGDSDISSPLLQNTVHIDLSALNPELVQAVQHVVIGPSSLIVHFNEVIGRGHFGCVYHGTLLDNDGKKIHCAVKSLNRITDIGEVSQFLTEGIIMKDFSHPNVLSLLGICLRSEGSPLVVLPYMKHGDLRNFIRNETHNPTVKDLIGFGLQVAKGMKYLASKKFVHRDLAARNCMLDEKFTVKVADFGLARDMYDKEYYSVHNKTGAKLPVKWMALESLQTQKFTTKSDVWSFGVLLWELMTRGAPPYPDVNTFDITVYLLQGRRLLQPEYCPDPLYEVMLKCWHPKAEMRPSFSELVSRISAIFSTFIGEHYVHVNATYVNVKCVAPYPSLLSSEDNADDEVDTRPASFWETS

IC50 (Met) [nM]	IC50 [1] [nM]	IC50 [2] [nM]	IC50 [3] [nM]	Compound
10 to 100	10 to 100	≤ 10	10 to 100	COC(=O)c1cc2nccc(Oc3ccc(NC(=O)C4(C(=O)Nc5ccc(F)cc5)CC4)cc3)c2cc1C [Compound 140, methyl 4-[4-[[1-[(4-fluorophenyl)carbamoyl]cyclopropanecarbonyl]amino]phenoxy]-6-methylquinoline-7-carboxylate]
100 to 300	10 to 100	10 to 100	10 to 100	CN1CC(NC(=O)c2ccc3nccc(Oc4ccc(NC(=O)C5(C(=O)Nc6ccc(F)cc6)CC5)cc4)c3c2)C1 [Compound 60, 1-N′-(4-fluorophenyl)-1-N-[4-[6-[(1-methylazetidin-3-yl)carbamoyl]quinolin-4-yl]oxyphenyl]cyclopropane-1,1-dicarboxamide]
100 to 300	10 to 100	≤ 10	10 to 100	COc1cc2nccc(Oc3ccc(NC(=O)C4(C(=O)Nc5ccc(F)cc5)CC4)cc3)c2cc1C(=O)N1CCC1 [Compound 15, 1-N-[4-[6-(azetidine-1-carbonyl)-7-methoxyquinolin-4-yl]oxyphenyl]-1-N′-(4-fluorophenyl)cyclopropane-1,1-dicarboxamide]
> 300	10 to 100	10 to 100	10 to 100	COc1cc2nccc(Oc3ccc(NC(=O)C4(C(=O)Nc5ccc(F)cc5)CC4)cc3Cl)c2cc1C(=O)O [Compound 130, 4-[2-chloro-4-[[1-[(4-fluorophenyl)carbamoyl]cyclopropanecarbonyl]amino]phenoxy]-7-methoxyquinoline-6-carboxylic acid]
10 to 100	≤ 10	≤ 10	10 to 100	COC(=O)c1cc2c(Oc3ccc(NC(=O)C4(C(=O)Nc5ccc(F)cc5)CC4)cc3)ccnc2cc1OC [Compound 5, methyl 4-[4-[[1-[(4-fluorophenyl)carbamoyl]-cyclopropanecarbonyl]amino]-phenoxy]-7-methoxyquinoline-6-carboxylate]
100 to 300	10 to 100	10 to 100	10 to 100	NC(=O)c1cc2c(Oc3ccc(NC(=O)C4(C(=O)Nc5ccc(F)cc5)CC4)cc3)ccnc2cc1F [Compound 67, 1-N-[4-(6-carbamoyl-7-fluoroquinolin-4-yl)oxyphenyl]-1-N′-(4-fluorophenyl)cyclopropane-1,1-dicarboxamide]
> 300	≤ 10	10 to 100	10 to 100	COc1cc2nccc(Oc3ccc(NC(=O)C4(C(=O)Nc5ccc(F)cc5)CC4)cc3F)c2cc1C(=O)O [Compound 131, 4-[2-fluoro-4-[[1-[(4-fluorophenyl)carbamoyl]cyclopropanecarbonyl]amino]phenoxy]-7-methoxyquinoline-6-carboxylic acid]
≤ 10	≤ 10	≤ 10	≤ 10	NC(=O)c1cc2c(Oc3ccc(NC(=O)C4(C(=O)Nc5ccc(F)cc5)CC4)cc3)ccnc2cc1OCCCN1CCOCC1 [Compound 98, 1-N-[4-[6-carbamoyl-7-(3-morpholin-4-ylpropoxy)quinolin-4-yl]oxyphenyl]-1-N′-(4-fluorophenyl)cyclopropane-1,1-dicarboxamide]
10 to 100	≤ 10	≤ 10	10 to 100	CNC(=O)c1cc2nccc(Oc3ccc(NC(=O)C4(C(=O)Nc5ccc(F)cc5)CC4)cc3)c2cc1C [Compound 143, 1-N′-(4-fluorophenyl)-1-N-[4-[6-methyl-7-(methylcarbamoyl)quinolin-4-yl]oxyphenyl]cyclopropane-1,1-dicarboxamide]
≤ 10	≤ 10	≤ 10	≤ 10	CNC(=O)c1cc2c(Oc3ccc(NC(=O)C4(C(=O)Nc5ccc(F)cc5)CC4)cc3F)ccnc2cc1OC [Compound 135, 1-N′-[3-fluoro-4-[7-methoxy-6-(methylcarbamoyl)quinolin-4-yl]oxyphenyl]-1-N-(4-fluorophenyl)cyclopropane-1,1-dicarboxamide]
10 to 100	≤ 10	≤ 10	10 to 100	COCCOc1cc2nccc(Oc3ccc(NC(=O)C4(C(=O)Nc5ccc(F)cc5)CC4)cc3)c2cc1C(N)=O [Compound 103, 1-N-[4-[6-carbamoyl-7-(2-methoxyethoxy)quinolin-4-yl]oxyphenyl]-1-N′-(4-fluorophenyl)cyclopropane-1,1-dicarboxamide]
100 to 300	10 to 100	≤ 10	10 to 100	COC(=O)c1ccc2c(Oc3ccc(NC(=O)C4(C(=O)Nc5ccc(F)cc5)CC4)cc3)ccnc2c1 [Compound 162, methyl 4-[4-[[1-[(4-fluorophenyl)carbamoyl]cyclopropanecarbonyl]amino]phenoxy]quinoline-7-carboxylate]
10 to 100	10 to 100	≤ 10	10 to 100	COc1cc2nccc(Oc3ccc(NC(=O)C4(C(=O)Nc5ccc(F)cc5)CC4)cc3)c2cc1-c1ccc(C)o1 [Compound 180, 1-N′-(4-fluorophenyl)-1-N-[4-[7-methoxy-6-(5-methylfuran-2-yl)quinolin-4-yl]oxyphenyl]cyclopropane-1,1-dicarboxamide]
